# Laboratory results taken from the supplement of paper PMC11208160.
# Assay: recombinant UMI read abundance after kanamycin selection (control-corrected) (log10(CPM+1)); higher = more efficient recombination; extreme values may be limits of the assay; sequences stand for … in AGTGCAGAGAAAATCGGCCAGTTTTCTCTGCCTGCAGTCCGCATGCCGTGGGACCCCTTGGGTTCTAACCTGTTGCCTAGATTTATGCAGCGGACTGCCTTTCTCCCAAAGTGATAAACCGG…AGGTTGGTTTCACT; site = the 11-nt donor
# Method in brief: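 Values are reported as log10(CPM+1), obtained by converting sequencing counts to CPM, averaging replicates and scaling by control-derived factors. The counts came from recombinant UMIs amplified by PCR across the donor–target junction. These UMIs came from a pooled Escherichia coli screen of donor and donor-binding-loop pairs for the IS621 bridge recombinase, plated with IPTG (0.07 mM) plus kanamycin or left unselected, in two replicates each.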
# 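Note: IS621 bridge recombinase in Escherichia coli cells against a fixed T5 target plasmid.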
row,Sequence,recombinant UMI read abundance (log10)
1,GGTTAGACATGGACCGGTTTTCCCGGTAATCCGTATTTGAG (site GGTTAGACTCT),1.12
2,GGTTAGACATGGACCGGTTTTCCCGGTAATCCGTATTTGAG (site TGTTAGACTCT),0.194
3,GGTTGGACATGGACCGGTTTTCCCGGTAATCCGTATTTGAC (site GATTGGACTGT),0
4,GGTTGGACATGGACCGGTTTTCCCGGTAATCCGTATTTGAC (site GCTTGGACTGT),0
5,GGTTGGACATGGACCGGTTTTCCCGGTAATCCGTATTTGAC (site GGTTGGACTGT),1.49
6,GGTTGGACATGGACCGGTTTTCCCGGTAATCCGTATTTGAC (site GTTTGGACTGT),0
7,GGTTTATCATGGACCGGTTTTCCCGGTAATCCGTATTTGAC (site GGTTTATCTGT),0.699
8,GTAAACCCATGGACCGGTTTTCCCGGTAATCCGTATTTGAT (site GTAAACCCTAT),1.45
9,GTAAGATCATGGACCGGTTTTCCCGGTAATCCGTATTTGGC (site GTAAGATCTGC),2.74
10,GTAAGCACATGGACCGGTTTTCCCGGTAATCCGTATTTGTA (site GTAAGCACTTA),2.03
11,GTAAGCACATGGACCGGTTTTCCCGGTAATCCGTATTTGTA (site GTACGCACTTA),0.0491
12,GTAAGCACATGGACCGGTTTTCCCGGTAATCCGTATTTGTA (site GTAGGCACTTA),0.614
13,GTAAGCACATGGACCGGTTTTCCCGGTAATCCGTATTTGTA (site GTATGCACTTA),0.495
14,GTAAGGCCATGGACCGGTTTTCCCGGTAATCCGTATTTGAC (site ATAAGGCCTGT),0
15,GTAAGGCCATGGACCGGTTTTCCCGGTAATCCGTATTTGAC (site CTAAGGCCTGT),0
16,GTAAGGCCATGGACCGGTTTTCCCGGTAATCCGTATTTGAC (site GTAAGGCCTGT),0
17,GTAAGGCCATGGACCGGTTTTCCCGGTAATCCGTATTTGAC (site TTAAGGCCTGT),0
18,GTAATCTCATGGACCGGTTTTCCCGGTAATCCGTATTTGAC (site GTAATCTCTGT),2.51
19,GTAATTGCATGGACCGGTTTTCCCGGTAATCCGTATTTGTA (site GTAATTGCTTA),2.57

row,Sequence,recombinant UMI read abundance (log10)
1,GTACAGTCATGGACCGGTTTTCCCGGTAATCCGTATTTGAT (site GTACAGTCTAT),2.73
2,GTACGAGCATGGACCGGTTTTCCCGGTAATCCGTATTTGTG (site GTACGAGCTCA),1.39
3,GTACTATCATGGACCGGTTTTCCCGGTAATCCGTATTTGGC (site GTACTATCTGC),3.19
4,GTACTTCCATGGACCGGTTTTCCCGGTAATCCGTATTTGTC (site GTACTTCCTGA),1.93
5,GTAGAACCATGGACCGGTTTTCCCGGTAATCCGTATTTGCA (site GTAGAACCTTG),0
6,GTAGAGGCATGGACCGGTTTTCCCGGTAATCCGTATTTGTG (site GTAGAGGCTCA),1.58
7,GTAGAGGCATGGACCGGTTTTCCCGGTAATCCGTATTTGTG (site GTCGAGGCTCA),0.361
8,GTAGAGGCATGGACCGGTTTTCCCGGTAATCCGTATTTGTG (site GTGGAGGCTCA),0.704
9,GTAGAGGCATGGACCGGTTTTCCCGGTAATCCGTATTTGTG (site GTTGAGGCTCA),0.247
10,GTAGCAACATGGACCGGTTTTCCCGGTAATCCGTATTTGTA (site GTAGCAACTTA),2.18
11,GTAGGCTCATGGACCGGTTTTCCCGGTAATCCGTATTTGTG (site GTAGGCTCTCA),1.4
12,GTAGGGGCATGGACCGGTTTTCCCGGTAATCCGTATTTGAA (site GTAGGGGCTTT),1.18
13,GTAGTCCCATGGACCGGTTTTCCCGGTAATCCGTATTTGCG (site GTAGTCACTCG),0.251
14,GTAGTCCCATGGACCGGTTTTCCCGGTAATCCGTATTTGCG (site GTAGTCCCTCG),0.791
15,GTAGTCCCATGGACCGGTTTTCCCGGTAATCCGTATTTGCG (site GTAGTCGCTCG),0.16
16,GTAGTCCCATGGACCGGTTTTCCCGGTAATCCGTATTTGCG (site GTAGTCTCTCG),2.33
17,GTAGTCCCATGGACCGGTTTTCCCGGTAATCCGTATTTGGT (site GTAGTCCCTAC),0.588
18,GTAGTCGCATGGACCGGTTTTCCCGGTAATCCGTATTTGCT (site GTAGTCGCTAG),2.87
19,GTAGTCGCATGGACCGGTTTTCCCGGTAATCCGTATTTGCT (site GTAGTCGCTCG),1.77

row,Sequence,recombinant UMI read abundance (log10)
1,GTAGTCGCATGGACCGGTTTTCCCGGTAATCCGTATTTGCT (site GTAGTCGCTGG),2.09
2,GTAGTCGCATGGACCGGTTTTCCCGGTAATCCGTATTTGCT (site GTAGTCGCTTG),1.57
3,GTAGTCGCATGGACCGGTTTTCCCGGTAATCCGTATTTGGG (site GTAGTCGCTCA),0.214
4,GTAGTCGCATGGACCGGTTTTCCCGGTAATCCGTATTTGGG (site GTAGTCGCTCC),0.132
5,GTAGTCGCATGGACCGGTTTTCCCGGTAATCCGTATTTGGG (site GTAGTCGCTCG),0.0493
6,GTAGTCGCATGGACCGGTTTTCCCGGTAATCCGTATTTGGG (site GTAGTCGCTCT),0.661
7,GTAGTTACATGGACCGGTTTTCCCGGTAATCCGTATTTGAC (site GTAGATACTGT),2.18
8,GTAGTTACATGGACCGGTTTTCCCGGTAATCCGTATTTGAC (site GTAGCTACTGT),1.23
9,GTAGTTACATGGACCGGTTTTCCCGGTAATCCGTATTTGAC (site GTAGGTACTGT),0.575
10,GTAGTTACATGGACCGGTTTTCCCGGTAATCCGTATTTGAC (site GTAGTTACTGT),2.74
11,GTAGTTCCATGGACCGGTTTTCCCGGTAATCCGTATTTGGT (site GTAGTTCCTAC),0.849
12,GTAGTTCCATGGACCGGTTTTCCCGGTAATCCGTATTTGGT (site GTCGTTCCTAC),0
13,GTAGTTCCATGGACCGGTTTTCCCGGTAATCCGTATTTGGT (site GTGGTTCCTAC),0.00522
14,GTAGTTCCATGGACCGGTTTTCCCGGTAATCCGTATTTGGT (site GTTGTTCCTAC),0.00774
15,GTATCAGCATGGACCGGTTTTCCCGGTAATCCGTATTTGTC (site GTATCAGCTGA),3.03
16,GTATCTACATGGACCGGTTTTCCCGGTAATCCGTATTTGCT (site GTATCTACTAG),1.66
17,GTATCTCCATGGACCGGTTTTCCCGGTAATCCGTATTTGTA (site GTATCTCCTTA),0.705
18,GTATGCACATGGACCGGTTTTCCCGGTAATCCGTATTTGTC (site GTATGCACTAA),0.663
19,GTATGCACATGGACCGGTTTTCCCGGTAATCCGTATTTGTC (site GTATGCACTCA),0.0163
